Measured values published in patent US20040204357A1, “Modulator of the megalin-mediated uptake of radiotherapeutics and/or radiodiagnostics into kidney cells and their use in therapy and diagnostics” (priority 2003, published 2004).
Read-outs that look alike come from different tables or passages of the source. Square brackets hold non-standard residues; d marks the D form. Peptide text beside a SMILES is read from it. * marks the point of attachment. X1 = NCCCC[C@H](NC(=O)[C@H](CS)NC(=O)[C@H](CCCCN)NC(=O)[C@@H](N)CNC(=O)C*)C(N)=O; NMeF = CN[C@@H](Cc1ccccc1)C(=O)O; hCys = N[C@@H](CCS)C(=O)O

Tests used:
megalin = megalin (Homo sapiens, UniProt P98164); conditions: cited from earlier work
Sequence of megalin (P98164 26-4655, species assumed): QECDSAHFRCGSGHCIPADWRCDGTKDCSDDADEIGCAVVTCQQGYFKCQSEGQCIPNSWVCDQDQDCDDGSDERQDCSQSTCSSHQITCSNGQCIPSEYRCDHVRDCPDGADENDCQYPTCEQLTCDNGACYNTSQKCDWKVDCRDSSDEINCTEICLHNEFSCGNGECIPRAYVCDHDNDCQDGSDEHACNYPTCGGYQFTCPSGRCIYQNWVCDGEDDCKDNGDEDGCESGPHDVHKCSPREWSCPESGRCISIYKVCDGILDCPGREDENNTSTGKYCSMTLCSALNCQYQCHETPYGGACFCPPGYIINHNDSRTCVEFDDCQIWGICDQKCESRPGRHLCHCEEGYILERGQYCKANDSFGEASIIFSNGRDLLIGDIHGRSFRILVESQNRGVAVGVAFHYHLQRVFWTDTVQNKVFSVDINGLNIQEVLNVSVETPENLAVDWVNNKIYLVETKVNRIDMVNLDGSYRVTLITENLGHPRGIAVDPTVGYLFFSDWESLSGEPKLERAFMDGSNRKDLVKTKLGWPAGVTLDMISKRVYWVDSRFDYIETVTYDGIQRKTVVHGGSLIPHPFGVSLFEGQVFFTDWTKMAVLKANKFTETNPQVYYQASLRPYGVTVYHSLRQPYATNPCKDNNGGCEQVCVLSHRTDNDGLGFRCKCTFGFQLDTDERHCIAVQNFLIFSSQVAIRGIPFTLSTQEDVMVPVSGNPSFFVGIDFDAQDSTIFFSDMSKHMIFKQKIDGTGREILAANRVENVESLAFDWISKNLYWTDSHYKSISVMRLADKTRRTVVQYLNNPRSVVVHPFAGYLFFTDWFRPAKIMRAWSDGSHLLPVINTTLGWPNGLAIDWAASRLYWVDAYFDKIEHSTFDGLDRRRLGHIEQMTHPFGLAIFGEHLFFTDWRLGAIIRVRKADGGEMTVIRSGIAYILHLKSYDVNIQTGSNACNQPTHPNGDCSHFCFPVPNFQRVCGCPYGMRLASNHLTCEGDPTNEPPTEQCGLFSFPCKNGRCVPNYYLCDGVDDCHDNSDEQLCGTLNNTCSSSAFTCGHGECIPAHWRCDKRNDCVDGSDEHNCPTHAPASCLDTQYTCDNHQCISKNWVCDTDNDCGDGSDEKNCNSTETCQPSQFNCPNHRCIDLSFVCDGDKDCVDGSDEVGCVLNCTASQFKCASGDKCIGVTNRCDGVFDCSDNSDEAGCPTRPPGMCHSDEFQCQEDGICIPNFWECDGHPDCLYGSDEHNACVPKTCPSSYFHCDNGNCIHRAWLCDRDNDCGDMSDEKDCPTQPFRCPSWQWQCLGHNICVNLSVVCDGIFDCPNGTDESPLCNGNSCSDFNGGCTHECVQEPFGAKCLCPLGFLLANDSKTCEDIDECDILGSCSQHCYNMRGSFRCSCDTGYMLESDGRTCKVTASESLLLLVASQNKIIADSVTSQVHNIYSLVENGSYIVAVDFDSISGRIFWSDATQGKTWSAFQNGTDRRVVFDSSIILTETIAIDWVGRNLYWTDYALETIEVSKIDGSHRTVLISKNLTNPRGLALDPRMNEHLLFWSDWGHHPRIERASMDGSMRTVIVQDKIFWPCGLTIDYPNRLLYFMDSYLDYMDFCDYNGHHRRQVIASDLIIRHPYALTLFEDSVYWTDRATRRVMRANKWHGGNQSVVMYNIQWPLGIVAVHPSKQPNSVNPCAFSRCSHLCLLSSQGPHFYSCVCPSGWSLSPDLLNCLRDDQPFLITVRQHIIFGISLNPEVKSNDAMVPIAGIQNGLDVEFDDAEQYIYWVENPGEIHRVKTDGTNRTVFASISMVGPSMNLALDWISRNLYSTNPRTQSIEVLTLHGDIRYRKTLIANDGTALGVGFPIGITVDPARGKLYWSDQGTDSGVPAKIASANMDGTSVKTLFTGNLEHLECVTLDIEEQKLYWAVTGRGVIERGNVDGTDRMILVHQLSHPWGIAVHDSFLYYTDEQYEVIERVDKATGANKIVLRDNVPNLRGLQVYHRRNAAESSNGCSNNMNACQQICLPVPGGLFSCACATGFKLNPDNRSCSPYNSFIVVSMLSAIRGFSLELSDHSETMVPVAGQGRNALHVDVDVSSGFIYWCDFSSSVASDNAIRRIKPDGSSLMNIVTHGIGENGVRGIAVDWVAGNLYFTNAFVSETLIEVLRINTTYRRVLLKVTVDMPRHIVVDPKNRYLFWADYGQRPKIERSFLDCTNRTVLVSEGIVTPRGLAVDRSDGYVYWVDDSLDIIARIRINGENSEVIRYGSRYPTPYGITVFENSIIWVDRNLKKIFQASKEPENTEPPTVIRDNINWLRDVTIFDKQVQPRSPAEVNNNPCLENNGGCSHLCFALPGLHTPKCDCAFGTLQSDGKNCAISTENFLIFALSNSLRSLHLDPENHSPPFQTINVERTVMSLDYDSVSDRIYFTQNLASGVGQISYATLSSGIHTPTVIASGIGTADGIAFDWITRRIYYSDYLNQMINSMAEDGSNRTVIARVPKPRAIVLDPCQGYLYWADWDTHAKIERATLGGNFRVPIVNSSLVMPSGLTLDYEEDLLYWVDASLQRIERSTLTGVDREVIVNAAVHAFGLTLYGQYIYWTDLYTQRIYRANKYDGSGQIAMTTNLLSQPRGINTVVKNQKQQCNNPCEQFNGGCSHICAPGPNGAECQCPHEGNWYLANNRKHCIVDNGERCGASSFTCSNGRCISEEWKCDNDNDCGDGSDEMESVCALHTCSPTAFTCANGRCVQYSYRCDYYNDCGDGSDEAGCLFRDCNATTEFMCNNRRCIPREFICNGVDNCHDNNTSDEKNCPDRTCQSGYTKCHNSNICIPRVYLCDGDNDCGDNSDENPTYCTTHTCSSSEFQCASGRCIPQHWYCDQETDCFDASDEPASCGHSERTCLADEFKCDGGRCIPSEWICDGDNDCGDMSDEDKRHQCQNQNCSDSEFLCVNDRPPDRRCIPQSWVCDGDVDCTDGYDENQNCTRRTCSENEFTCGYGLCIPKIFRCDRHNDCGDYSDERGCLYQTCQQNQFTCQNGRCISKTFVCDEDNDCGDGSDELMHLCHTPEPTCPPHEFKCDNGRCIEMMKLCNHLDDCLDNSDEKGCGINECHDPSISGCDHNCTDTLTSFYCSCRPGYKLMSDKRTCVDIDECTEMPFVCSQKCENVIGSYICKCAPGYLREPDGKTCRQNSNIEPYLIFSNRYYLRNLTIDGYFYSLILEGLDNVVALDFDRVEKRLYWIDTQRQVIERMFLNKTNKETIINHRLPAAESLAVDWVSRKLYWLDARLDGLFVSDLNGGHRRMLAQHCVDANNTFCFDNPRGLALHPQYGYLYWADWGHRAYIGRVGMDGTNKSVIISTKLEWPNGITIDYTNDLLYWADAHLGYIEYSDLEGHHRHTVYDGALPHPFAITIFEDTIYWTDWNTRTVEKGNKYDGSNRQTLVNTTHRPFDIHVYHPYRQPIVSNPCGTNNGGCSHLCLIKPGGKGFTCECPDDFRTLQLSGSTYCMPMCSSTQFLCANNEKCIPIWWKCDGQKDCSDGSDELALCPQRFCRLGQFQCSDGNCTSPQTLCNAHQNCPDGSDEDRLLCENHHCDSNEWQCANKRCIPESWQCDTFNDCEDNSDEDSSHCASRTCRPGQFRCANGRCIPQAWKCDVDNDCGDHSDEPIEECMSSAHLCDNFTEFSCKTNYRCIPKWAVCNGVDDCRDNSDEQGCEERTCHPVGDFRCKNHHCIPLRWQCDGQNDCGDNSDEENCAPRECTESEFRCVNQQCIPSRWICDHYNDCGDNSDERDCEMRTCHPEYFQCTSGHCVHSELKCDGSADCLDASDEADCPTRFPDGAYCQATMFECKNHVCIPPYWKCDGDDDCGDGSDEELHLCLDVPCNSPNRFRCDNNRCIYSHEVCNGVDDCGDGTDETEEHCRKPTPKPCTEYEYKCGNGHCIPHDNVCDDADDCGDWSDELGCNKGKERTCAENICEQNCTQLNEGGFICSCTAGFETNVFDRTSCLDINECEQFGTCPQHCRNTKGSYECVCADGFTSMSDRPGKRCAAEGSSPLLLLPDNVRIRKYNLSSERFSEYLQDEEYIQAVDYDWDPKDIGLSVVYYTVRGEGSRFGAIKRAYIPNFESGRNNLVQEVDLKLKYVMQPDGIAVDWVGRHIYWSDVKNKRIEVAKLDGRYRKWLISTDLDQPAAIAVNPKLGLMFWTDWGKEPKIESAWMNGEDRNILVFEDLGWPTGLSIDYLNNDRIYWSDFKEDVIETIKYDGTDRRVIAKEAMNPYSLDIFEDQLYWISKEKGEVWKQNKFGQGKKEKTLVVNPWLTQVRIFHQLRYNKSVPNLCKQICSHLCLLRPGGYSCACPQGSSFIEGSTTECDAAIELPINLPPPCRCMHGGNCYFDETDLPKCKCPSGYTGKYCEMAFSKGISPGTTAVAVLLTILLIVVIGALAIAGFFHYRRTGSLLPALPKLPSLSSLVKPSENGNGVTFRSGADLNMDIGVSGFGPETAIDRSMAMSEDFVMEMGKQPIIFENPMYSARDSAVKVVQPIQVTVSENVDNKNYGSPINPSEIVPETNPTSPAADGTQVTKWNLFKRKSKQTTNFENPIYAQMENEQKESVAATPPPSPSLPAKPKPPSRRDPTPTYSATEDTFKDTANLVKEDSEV

[1] = Biodistribution of radiopharmaceuticals in RAP-deficient mice and control strain C57BL/6J, organs, urine and faeces counted for radioactivity; format: in vivo; conditions: mouse, total radioactivity, single intravenous injection 1-2 μCi/animal, 24 hours post injection, n = 3; for tissue uptake at 24 h: kidneys; for dose excreted at 24 h: urine, read-out: Urine (% ID)
Description: In order to investigate, whether megalin and cubilin play a role in the renal uptake of radiopharmaceuticals into cells of the proximal tubule, in-vivo experiments with RAP-deficient mice (Jax®Mice, strain B6.129S7-Lrpap1^tmlHer) were carried out.
RAP is mainly located in the endoplasmatic reticulum where it is responsible for the proper folding and escort of megalin to the plasma membrane (Willnow, 1995). RAP also binds to other members of the LDL-receptor family, such as the receptor LRP (LDL-receptor related protein) which is not expressed in the kidneys but mostly in the liver and the brain. In RAP-deficient mice the megalin expression in the kidneys is reduced by about 80% (Bim, 2000) and also the cubilin expression is reduced by some extend. These mice are therefore a representative model to study the megalin dependence of the uptake of radiopharmaceuticals. There exist also megalin knock-out mice which have the disadvantage that only 2% of the bred animals survive to adulthood due to several malformations especially of the forebrain (Leheste, 1999).
RAP-deficient mice (stock #002987) and mice of the control strain C57BL/6J (Jax®Mice, stock #000664) were treated with a single intravenous injection (1-2 μCi/animal) of the following radiopharmaceuticals:
After 24 hours post injection the animals were killed and the organs as well as the collected urine and faeces counted for radioactivity. […]

[2] = B6.129S7-Lrpap1^tmlHer (RAP-deficient), RAP−/− (RAP-deficient) mice

In the case of “RAP: 39 kDa chaperone-like protein that binds tightly to megalin”, the “Affinity of binding to megalin” value (megalin) is given as “high affinity in the nanomolar range”.
For `CC(C)[C@@H]1NC(=O)[C@H](CCCCN)NC(=O)[C@@H](Cc2c[nH]c3ccccc23)NC(=O)[C@H](Cc2ccc(O)cc2)NC(=O)[C@H](Cc2ccccc2)N(C)C(=O)[C@H](CCSCC(=O)NC[C@H](N)C(=O)N[C@@H](CCCCN)C(=O)N[C@@H](CS)C(=O)N[C@@H](CCCCN)C(N)=O)NC1=O` [Tc-99m-NeoTect ®, metal not drawn] (cyclo([hCys](X1)[NMeF]Y[dW]KV)), the tissue uptake at 24 h [1, 2] was 99.3 %ID/g, the dose excreted at 24 h [1, 2] was 40.4% and the tissue uptake at 24 h ([1]; Control mice (C57BL/6J)) was 261 %ID/g. It also gave a dose excreted at 24 h ([1]; Control mice (C57BL/6J)) of 23.6%.
